According to US20070128217A1 (priority 2003, published 2007):

Legend:
[1] = system: antibodies in sera from SARS patients (sera 1a, 1b, 2, 6, 37, 62, London, SARS-yellow, SARS-green); type: binding, human; design: Binding of serum 6 to linear peptides of protein X1 of SARS-CoV Urbani / Binding of serum 37 to linear peptides of protein X1 of SARS-CoV Urbani / Binding of serum 6 to looped/cyclic peptide (PEPSCAN-ELISA) / Binding of serum 37 to looped/cyclic peptide (PEPSCAN-ELISA) / Binding of serum 37 to looped/cyclic peptides of protein X1 of SARS-CoV Urbani / Binding of serum 6 to linear peptides of protein X2 / Binding of serum 37 to linear peptides of protein X2 / Binding of serum 37 to looped/cyclic peptides of protein X2 of SARS-CoV Urbani / Binding of serum 6 to linear peptides of protein M of SARS-CoV Urbani / Binding of serum 37 to linear peptides of protein M of SARS-CoV Urbani / Binding of serum 6 to looped/cyclic peptides of protein M of SARS-CoV Urbani / Binding of serum 37 to looped/cyclic peptides of protein M of SARS-CoV Urbani / Binding of serum 6 to linear peptides of protein X3 of SARS-CoV Urbani / Binding of serum 37 to linear peptides of protein X3 of SARS-CoV Urbani / Binding of serum 37 to looped/cyclic peptides of protein X3 of SARS-CoV Urbani / Binding of serum 6 to linear peptides of protein X4 of SARS-CoV Urbani / Binding of serum 37 to linear peptides of protein X4 of SARS-CoV Urbani / Binding of serum 37 to looped/cyclic peptides of protein X4 of SARS-CoV Urbani / Binding of serum 6 to linear peptides of protein X5 of SARS-CoV Urbani / Binding of serum 37 to linear peptides of protein X5 of SARS-CoV Urbani / Binding of serum 37 to looped/cyclic peptides of protein X5 of SARS-CoV Urbani / Binding of serum 6 to linear peptides of protein N of SARS-CoV Urbani / Binding of serum 37 to linear peptides of protein N of SARS-CoV Urbani / Binding of serum 6 to linear peptide (PEPSCAN-ELISA) / Binding of serum 1a to looped/cyclic peptides of protein N of SARS-CoV Urbani / Binding of serum 1b to looped/cyclic peptides of protein N of SARS-CoV Urbani / Binding of serum 2 to looped/cyclic peptides of protein N of SARS-CoV Urbani / Binding of serum 6 to looped/cyclic peptides of protein N of SARS-CoV Urbani / Binding of serum 37 to looped/cyclic peptides of protein N of SARS-CoV Urbani / Binding of serum 62 to looped/cyclic peptides of protein N of SARS-CoV Urbani / Binding of serum London to looped/cyclic peptides of protein N of SARS-CoV Urbani / Binding of serum SARS-green to looped/cyclic peptides of protein N of SARS-CoV Urbani: unit not given here
[2] = system: control sera (pooled serum of ten healthy LUMC hospital workers; commercial negative donor pooled serum from the Dutch bloodbank); type: binding, human; design: Binding of Control serum LUMC to linear peptides / Binding of Control serum Blood-bank to linear peptides / Binding of Control serum LUMC to looped peptides / Binding of Control Serum Blood-Bank to Looped peptides / Binding of Control serum LUMC to linear peptides of the protein M of SARS-CoV Urbani / Binding of Control serum Blood-bank to linear peptides of the protein M of SARS-CoV Urbani / Binding of Control serum LUMC to looped peptides of the protein M of SARS-CoV Urbani / Binding of Control Serum Blood-Bank to Looped peptides of the protein M of SARS-CoV Urbani: unit not given here
[3] = system: rabbit serum obtained by immunizing a rabbit with the SARS-CoV strain Frankfurt 1; type: binding; design: Binding of a rabbit serum to linear peptides / Binding of a rabbit serum to looped peptides / Rabbit serum linear peptides / Rabbit serum looped peptides / Binding of a rabbit serum to linear peptides of protein N of SARS-CoV Urbani (Rabbit serum linear peptides) / Binding of a rabbit serum to looped/cyclic peptides of protein N of SARS-CoV Urbani (Rabbit serum looped peptides): unit not given here

PKFTTSLSLHKLLQT
Binding of serum 1a to linear peptides of protein X2 [1]: 0.6 | Binding of serum 1a to looped/cyclic peptides of protein X2 of SARS-CoV Urbani [1]: 0.5 | Binding of serum 1b to linear peptides of protein X2 [1]: 0.4 | Binding of serum 1b to looped/cyclic peptides of protein X2 of SARS-CoV Urbani [1]: 0.4 | Binding of serum 2 to linear peptides of protein X2 [1]: 0.5 | Binding of serum 2 to looped/cyclic peptides of protein X2 of SARS-CoV Urbani [1]: 0.3 | Binding of serum 6 to linear peptides of protein X2 [1]: 0.3 | Binding of serum 6 to looped/cyclic peptides of protein X2 of SARS-CoV Urbani [1]: 0.3 | Binding of serum 37 to linear peptides of protein X2 [1]: 0.5 | Binding of serum 37 to looped/cyclic peptides of protein X2 of SARS-CoV Urbani [1]: 0.4 | Binding of serum 62 to linear peptides of protein X2 [1]: 0.6 | Binding of serum 62 to looped/cyclic peptides of protein X2 of SARS-CoV Urbani [1]: 0.6 | Binding of serum London to linear peptides of protein X2 [1]: 0.4 | Binding of serum London to looped/cyclic peptides of protein X2 of SARS-CoV Urbani [1]: 0.3 | Binding of serum SARS-green to linear peptides of protein X2 [1]: 0.5 | Binding of serum SARS-green to looped/cyclic peptides of protein X2 of SARS-CoV Urbani [1]: 0.3 | Binding of serum SARS-yellow to linear peptides of protein X2 [1]: 0.3 | Binding of serum SARS-yellow to looped/cyclic peptides of protein X2 of SARS-CoV Urbani [1]: 0.3 | Binding of Control Serum Blood-Bank to Looped peptides [2]: 0.7 | Binding of Control serum Blood-bank to linear peptides [2]: 0.7 | Binding of Control serum LUMC to linear peptides [2]: 0.4 | Binding of Control serum LUMC to looped peptides [2]: 0.4 | Binding of a rabbit serum to linear peptides [3]: 0.2 | Binding of a rabbit serum to looped peptides [3]: 0.4

PLFLIVAALVFLILC
Binding of serum 1a to linear peptides of protein X4 of SARS-CoV Urbani [1]: 0.5 | Binding of serum 1a to looped/cyclic peptides of protein X4 of SARS-CoV Urbani [1]: 0.5 | Binding of serum 1b to linear peptides of protein X4 of SARS-CoV Urbani [1]: 0.4 | Binding of serum 1b to looped/cyclic peptides of protein X4 of SARS-CoV Urbani [1]: 0.1 | Binding of serum 2 to linear peptides of protein X4 of SARS-CoV Urbani [1]: 0.3 | Binding of serum 2 to looped/cyclic peptides of protein X4 of SARS-CoV Urbani [1]: 0.2 | Binding of serum 6 to linear peptides of protein X4 of SARS-CoV Urbani [1]: 0.3 | Binding of serum 6 to looped/cyclic peptides of protein X4 of SARS-CoV Urbani [1]: 0.5 | Binding of serum 37 to linear peptides of protein X4 of SARS-CoV Urbani [1]: 0.6 | Binding of serum 37 to looped/cyclic peptides of protein X4 of SARS-CoV Urbani [1]: 0.0 | Binding of serum 62 to linear peptides of protein X4 of SARS-CoV Urbani [1]: 0.7 | Binding of serum 62 to looped/cyclic peptides of protein X4 of SARS-CoV Urbani [1]: 0.1 | Binding of serum London to linear peptides of protein X4 of SARS-CoV Urbani [1]: 0.6 | Binding of serum London to looped/cyclic peptides of protein X4 of SARS-CoV Urbani [1]: 0.1 | Binding of serum SARS-green to linear peptides of protein X4 of SARS-CoV Urbani [1]: 0.5 | Binding of serum SARS-green to looped/cyclic peptides of protein X4 of SARS-CoV Urbani [1]: 0.2 | Binding of serum SARS-yellow to linear peptides of protein X4 of SARS-CoV Urbani [1]: 0.4 | Binding of serum SARS-yellow to looped/cyclic peptides of protein X4 of SARS-CoV Urbani [1]: 0.1 | Binding of Control Serum Blood-Bank to Looped peptides [2]: 0.5 | Binding of Control serum Blood-bank to linear peptides [2]: 0.4 | Binding of Control serum LUMC to linear peptides [2]: 0.4 | Binding of Control serum LUMC to looped peptides [2]: 0.5 | Rabbit serum linear peptides [3]: 0.4 | Rabbit serum looped peptides [3]: 0.0

PLMESELVIGAVIIR
Binding of serum 1a to linear peptides of protein M of SARS-CoV Urbani [1]: 0.7 | Binding of serum 1a to looped/cyclic peptides of protein M of SARS-CoV Urbani [1]: 0.7 | Binding of serum 1b to linear peptides of protein M of SARS-CoV Urbani [1]: 0.6 | Binding of serum 1b to looped/cyclic peptides of protein M of SARS-CoV Urbani [1]: 0.6 | Binding of serum 2 to linear peptides of protein M of SARS-CoV Urbani [1]: 0.7 | Binding of serum 2 to looped/cyclic peptides of protein M of SARS-CoV Urbani [1]: 0.7 | Binding of serum 6 to linear peptides of protein M of SARS-CoV Urbani [1]: 0.4 | Binding of serum 6 to looped/cyclic peptides of protein M of SARS-CoV Urbani [1]: 0.8 | Binding of serum 37 to linear peptides of protein M of SARS-CoV Urbani [1]: 0.7 | Binding of serum 37 to looped/cyclic peptides of protein M of SARS-CoV Urbani [1]: 0.8 | Binding of serum 62 to linear peptides of protein M of SARS-CoV Urbani [1]: 0.5 | Binding of serum 62 to looped/cyclic peptides of protein M of SARS-CoV Urbani [1]: 0.8 | Binding of serum London to linear peptides of protein M of SARS-CoV Urbani [1]: 0.3 | Binding of serum London to looped/cyclic peptides of protein M of SARS-CoV Urbani [1]: 0.2 | Binding of serum SARS-green to linear peptides of protein M of SARS-CoV Urbani [1]: 0.5 | Binding of serum SARS-green to looped/cyclic peptides of protein M of SARS-CoV Urbani [1]: 0.3 | Binding of serum SARS-yellow to linear peptides of protein M of SARS-CoV Urbani [1]: 0.2 | Binding of serum SARS-yellow to looped/cyclic peptides of protein M of SARS-CoV Urbani [1]: 0.7 | Binding of Control Serum Blood-Bank to Looped peptides of the protein M of SARS-CoV Urbani [2]: 0.9 | Binding of Control serum Blood-bank to linear peptides of the protein M of SARS-CoV Urbani [2]: 1.0 | Binding of Control serum LUMC to linear peptides of the protein M of SARS-CoV Urbani [2]: 0.8 | Binding of Control serum LUMC to looped peptides of the protein M of SARS-CoV Urbani [2]: 0.8 | Rabbit serum linear peptides [3]: 0.2 | Rabbit serum looped peptides [3]: 0.1

PLRGTIVTRPLMESE
Binding of serum 1a to linear peptides of protein M of SARS-CoV Urbani [1]: 0.8 | Binding of serum 1b to linear peptides of protein M of SARS-CoV Urbani [1]: 0.7 | Binding of serum 2 to linear peptides of protein M of SARS-CoV Urbani [1]: 0.4 | Binding of serum 6 to linear peptides of protein M of SARS-CoV Urbani [1]: 0.4 | Binding of serum 37 to linear peptides of protein M of SARS-CoV Urbani [1]: 0.8 | Binding of serum 62 to linear peptides of protein M of SARS-CoV Urbani [1]: 0.7 | Binding of serum London to linear peptides of protein M of SARS-CoV Urbani [1]: 0.3 | Binding of serum SARS-green to linear peptides of protein M of SARS-CoV Urbani [1]: 0.5 | Binding of serum SARS-yellow to linear peptides of protein M of SARS-CoV Urbani [1]: 0.0 | Recognition of the peptide by sera of SARS-CoV infected individuals, and form (linear, looped/cyclic) in which it is recognized [1]: recognized in looped/cyclic form | Binding of Control Serum Blood-Bank to Looped peptides of the protein M of SARS-CoV Urbani [2]: 0.5 | Binding of Control serum Blood-bank to linear peptides of the protein M of SARS-CoV Urbani [2]: 0.6 | Binding of Control serum LUMC to linear peptides of the protein M of SARS-CoV Urbani [2]: 0.3 | Binding of Control serum LUMC to looped peptides of the protein M of SARS-CoV Urbani [2]: 0.8 | Rabbit serum linear peptides [3]: 0.4 | Rabbit serum looped peptides [3]: 0.4

PNVQIHTIDGSSGVA
Binding of serum 1a to linear peptides of protein X1 of SARS-CoV Urbani [1]: 0.6 | Binding of serum 1a to looped/cyclic peptides of protein X1 of SARS-CoV Urbani [1]: 0.4 | Binding of serum 1b to linear peptides of protein X1 of SARS-CoV Urbani [1]: 0.4 | Binding of serum 1b to looped/cyclic peptides of protein X1 of SARS-CoV Urbani [1]: 0.3 | Binding of serum 2 to linear peptides of protein X1 of SARS-CoV Urbani [1]: 0.5 | Binding of serum 2 to looped/cyclic peptides of protein X1 of SARS-CoV Urbani [1]: 0.2 | Binding of serum 6 to linear peptides of protein X1 of SARS-CoV Urbani [1]: 0.4 | Binding of serum 6 to looped/cyclic peptides of protein X1 of SARS-CoV Urbani [1]: 0.2 | Binding of serum 37 to linear peptides of protein X1 of SARS-CoV Urbani [1]: 0.7 | Binding of serum 37 to looped/cyclic peptides of protein X1 of SARS-CoV Urbani [1]: 0.3 | Binding of serum 62 to linear peptides of protein X1 of SARS-CoV Urbani [1]: 0.6 | Binding of serum 62 to looped/cyclic peptides of protein X1 of SARS-CoV Urbani [1]: 0.3 | Binding of serum London to linear peptides of protein X1 of SARS-CoV Urbani [1]: 0.3 | Binding of serum London to looped/cyclic peptides of protein X1 of SARS-CoV Urbani [1]: 0.2 | Binding of serum SARS-green to linear peptides of protein X1 of SARS-CoV Urbani [1]: 0.2 | Binding of serum SARS-green to looped/cyclic peptides of protein X1 of SARS-CoV Urbani [1]: 0.2 | Binding of serum SARS-yellow to linear peptides of protein X1 of SARS-CoV Urbani [1]: 0.4 | Binding of serum SARS-yellow to looped/cyclic peptides of protein X1 of SARS-CoV Urbani [1]: 0.2 | Binding of Control Serum Blood-Bank to Looped peptides [2]: 0.5 | Binding of Control serum Blood-bank to linear peptides [2]: 0.5 | Binding of Control serum LUMC to linear peptides [2]: 0.6 | Binding of Control serum LUMC to looped peptides [2]: 0.5 | Binding of a rabbit serum to linear peptides [3]: 0.1 | Binding of a rabbit serum to looped peptides [3]: 0.4
